The data set is described as follows: gradient 5% acetonitrile 3 min, to 50% in 2 min, to 85% in 15 min, held 3 min, 100 µL/min. The settings on record: column: Zorbax Extend-C18 2.1 x 50 mm; eluents: water / acetonitrile, 0.1% formic acid. Summed up: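 The system's dead and dwell volumes were 40 μL and 900 μL, with a Zorbax Extend-C18 column (2.1 × 50 mm, 1.8 μm) run at 100 μL/min in water and acetonitrile containing 0.1% formic acid each. Pure standards were analyzed in mixtures of ~100 molecules by HPLC–quadrupole time-of-flight mass spectrometry in positive and negative ionization mode. Retention time was assigned from computationally picked, manually inspected adduct peaks.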
For `Cc1oc2cc3oc(=O)c(CC(=O)N[C@@H](Cc4c[nH]c5ccccc45)C(=O)O)c(C)c3cc2c1C`, the RP-LC retention time was 863 s. The same measure for `Cc1ccc(-n2nnc(C(=O)O)c2-c2ccccn2)c(F)c1`: 697 s; for `NC(=O)[C@@H]1C[C@H](Oc2cccnc2)CN1C(=O)CC1CCCC1`: 584 s. With `O=C(Nc1cccc(C(F)(F)F)c1)c1cc2ncc(Br)cn2n1` the figure was 982 s. With `CCOc1ccc(OCC)c(NC(=O)CSc2nnc3c4cc(-c5ccc(OC)cc5)nn4ccn23)c1` the figure was 1010 s; with `COC(=O)c1ccc(NC(=O)N2CCC(n3cnc4ccc(Cl)cc4c3=O)CC2)cc1`, 830 s; with `CCCNc1cc(N2CCC(CCC(=O)NCCc3cccs3)CC2)ncn1`, 662 s. Turning to `COc1cc(-c2noc(Cn3ncn4nc(-c5cccs5)cc4c3=O)n2)cc(OC)c1OC`, the RP-LC retention time came out at 983 s.

Turning to `CCOC(=O)N1CCC(NC(=O)CCc2cc3ccc(C)cc3[nH]c2=O)CC1`, the RP-LC retention time is 689 s. `CCOC(=O)C(=O)Nc1ccc(-c2nc(-c3ccc(C)cc3C)co2)cc1` gave an RP-LC retention time of 1170 s.

`COc1cccc(-c2noc(Cn3cnc4c(oc5ccccc54)c3=O)n2)c1` had an RP-LC retention time of 938 s.

The compound `Cc1c(-c2noc(-c3ccccc3)n2)nnn1Cc1ccccc1` came in with an RP-LC retention time of 1060 s. The same measure for `CCCNC(=O)C1CCCN(c2ccc(SCC(=O)NCc3ccc(OC)cc3)nn2)C1` (stereo not drawn): 595 s; for `CC1CCN(S(=O)(=O)c2ccc3c(c2)CCCC(=O)N3CC(=O)NCc2ccccc2)CC1`: 907 s. The same measure for `Cc1c(C)n(-c2ccccc2)c2ncn(CC(=O)NC(C)Cc3ccco3)c(=O)c12` (stereo not drawn): 848 s. With `COCCn1cc2c3c(cccc31)CN(C(=O)Nc1cc(Cl)ccc1C)CC2` the figure was 679 s.

With `CN(C)S(=O)(=O)c1ccc(-c2nnc(C(=O)NCCCN3CCCC3)o2)cc1`, the RP-LC retention time stood at 593 s. With `CCn1cc(C(=O)NCC2CC2)c(S(=O)(=O)N2CCSCC2)n1` the figure was 817 s. The same measure for `Cc1ccc(C(=O)N(C)C2CCc3nnc(C)n3CC2)s1` (stereo not drawn): 613 s; for `CCOc1ccc(S(=O)(=O)N2CCCC(C(=O)Nc3ccc(S(N)(=O)=O)cc3)C2)cc1C` (stereo not drawn): 876 s; for `COc1ccc(CNC(=O)C2(c3ccc(NC(C)=O)cc3)CCCCC2)c(OC)c1`: 841 s. With `Cc1c(-c2ccnc(N3CCN(C)CC3)n2)cnc2nc(-c3ccncc3)nn12`, the RP-LC retention time was 552 s.

Turning to `CC(C)NC(=O)N1CCC2(CC1)Nc1cc(F)ccc1-n1cccc12`, the RP-LC retention time is 895 s. With `CCOC(=O)c1cnc2nc(C)ccc2c1Nc1ccc(F)cc1F` the figure was 716 s. With `CCCNC(=O)C1CCCN(c2ccc(SCC(=O)Nc3ccc(CC)cc3)nn2)C1` (stereo not drawn) the figure was 656 s; with `CCOc1ccc(-c2csc3c(=O)n(Cc4ccc(F)cc4)cnc23)cc1OCC`, 1100 s. `CCCNC(=O)C1CCCN(c2nc3ncn(CC(=O)Nc4cc(F)cc(F)c4)c(=O)c3s2)C1` (stereo not drawn) displayed an RP-LC retention time of 744 s. As to `COc1ccc(C2CCCN2C(=O)c2c(C)noc2C)cc1` (stereo not drawn), the RP-LC retention time is 746 s. The same measure for `CCCNC(=O)C1CCCN(c2nc3ncn(CC(=O)Nc4ccc(Cl)cc4)c(=O)c3s2)C1` (stereo not drawn): 741 s. The same measure for `CCOc1ccc(NC(=O)N2CCN(CCn3c(C(C)C)nc4cccnc43)CC2)cc1`: 610 s; for `CCc1noc(NC(C)=O)c1-c1ccc(C)c(S(=O)(=O)Nc2ccc(OC)c(OC)c2)c1`: 840 s. As to `O=C(NCc1ccco1)C1CCN(C(=O)c2ncn3c2COC(c2ccc(F)cc2)C3)CC1` (stereo not drawn), the RP-LC retention time is 711 s. The same measure for `CC(=O)N1CCc2cc(S(=O)(=O)C(C)CC(=O)N3CCN(Cc4ccccc4)CC3)ccc21` (stereo not drawn): 960 s; for `COc1ccc(Br)cc1CNC(=O)Cn1cnc2nc3c(cc2c1=O)CCCC3`: 777 s. The same measure for `Cc1cccc(CNC(=O)c2ncn3c2C(=O)N(C2CC2)C(C)(C(=O)NC2CCCC2)C3)c1` (stereo not drawn): 784 s; for `COc1ccc(-c2nc(CSc3nc4ccccc4n4c(C)nnc34)c(C)o2)cc1`: 854 s. The same measure for `CC(=O)Nc1onc(C)c1-c1ccc(C)c(S(=O)(=O)NCc2ccc(Br)cc2)c1`: 870 s; for `O=C(NC1CCCCCC1)c1ccc2c(c1)nc1n2CCN(c2ccccc2)C1=O`: 804 s; for `Cc1ccccc1NC(=O)Cn1cnc2onc(C)c2c1=O`: 718 s. For the compound `CCCc1cc(N2CCN(C(=O)c3ccncc3)CC2)nc2nnc(CC)n12`, the RP-LC retention time is 580 s. Compound `Cc1nc(C)c(C(=O)Nc2ccc(F)cc2Cl)s1` showed an RP-LC retention time of 820 s. `CCn1cnc(S(=O)(=O)N2CCC(C(=O)NCc3ccccc3OC)CC2)c1` had an RP-LC retention time of 902 s. With `CCOc1cccc(-c2noc(-c3nnn(Cc4nc(-c5ccccc5OC)oc4C)c3C)n2)c1` the figure was 1190 s; with `CC1CC(C)OP(=O)(OCCC#N)O1` (stereo not drawn), 650 s. Compound `O=C(Cn1cc(-c2ccccc2)c2ncnc(N3CCOCC3)c21)NC1CCCC1` showed an RP-LC retention time of 717 s.

Compound `COc1ccc(N2CC(c3nnc(NC(=O)c4ccc(Br)cc4)o3)CC2=O)cc1` (stereo not drawn) returned an RP-LC retention time of 759 s. The same measure for `CN1c2ccc(F)cc2C(=O)NC12CCN(C(=O)c1ccc(Cl)cc1)CC2`: 785 s; for `CCOc1ccc(-c2nc(-c3ccc4c(c3)oc(=O)n4C)no2)cc1OCC`: 1110 s; for `Cn1c(=O)c2c(-c3ccncc3)c(C#N)c(N)nc2n(C)c1=O`: 554 s. The same measure for `O=C(Cn1cnc2nc(N3CCC(C(=O)NC4CC4)CC3)sc2c1=O)Nc1cccc(Cl)c1`: 679 s. The same measure for `CCC1CN(CC(=O)N2CCN(c3ccccn3)CC2)c2ccccc2S1` (stereo not drawn): 723 s; for `Cc1cccc(N2CCN(C(=O)c3cn4ccc(C)cc4n3)CC2)c1`: 668 s.

For the compound `Cc1nn(C(C)C(=O)NCCCOC(C)C)c(=O)c2c(C)n(-c3ccccc3)nc12` (stereo not drawn), the RP-LC retention time was 823 s. With `COc1cccc(CC(=O)N2CCC3(CC2)NC(=O)c2cc(C)ccc2N3C)c1` the figure was 798 s. `COc1ccccc1C(=O)N1CCC2(C1)C(=O)Nc1ccccc12` (stereo not drawn) displayed an RP-LC retention time of 672 s. With `Cc1ccc2nc(NC3=NCN(Cc4cccnc4)CN3)nc(C)c2c1` the figure was 587 s. With `COc1ccc(S(=O)(=O)N2CCCC(C(=O)NC3CCCCC3)C2)cc1C` (stereo not drawn) the figure was 962 s; with `Cc1onc2c(=O)n(CC(=O)N3CCN(c4ccccn4)CC3)nc(-c3ccc(Cl)cc3)c12`, 693 s; with `Cc1ccccc1Nc1c(-c2ccccc2)nc2cnccn12`, 906 s. In turn, `Cc1ccc(-c2nnc(-c3ccccc3Cl)o2)cc1S(=O)(=O)N1CCCC1` yielded an RP-LC retention time of 1090 s. With `O=C(NCCc1csc(C2CCN(C(=O)c3cc(F)ccc3F)CC2)n1)C1CC1` the figure was 699 s; with `Cc1noc(CNC(=O)c2ccc(OCc3nc(-c4ccco4)cs3)cc2)n1`, 758 s. With `O=C(CN1C(=O)CCCc2cc(S(=O)(=O)N3CCCCC3)ccc21)NCc1ccc(F)cc1` the figure was 862 s; with `CCCCN1C(=O)C(C)(C(=O)Nc2ccc(F)cc2F)Oc2cccnc21` (stereo not drawn), 1050 s. With `Cc1ccc(C(=O)Nc2cc(-c3cccnc3)no2)cc1` the figure was 764 s; with `CC(C)n1c(=O)sc2cc(S(=O)(=O)N3CCC(C(=O)N4CCN(C)CC4)CC3)ccc21`, 628 s; with `Cc1sc(-c2nnc(C3CC3)o2)cc1NC(=O)C(C)c1ccccc1` (stereo not drawn), 998 s. In turn, `Cc1cc2c(c(=O)n(-c3ccc(F)cc3)c(=O)n2CC(=O)Nc2ccc(Cl)cc2F)n1C` had an RP-LC retention time of 894 s. Consider `Cc1ccc(F)cc1-n1cc(C(=O)O)c2ccccc2c1=O`, for which the RP-LC retention time amounted to 791 s. The same measure for `Cc1ccc(-c2csc(NC(=O)c3ccccc3Br)n2)c(C)c1`: 1150 s.

With `CC(C)c1ccc(-c2c(N3CCN(c4ccccn4)CC3)c(=O)c2=O)cc1`, the RP-LC retention time turned out to be 756 s. The same measure for `CCN1CCN(C(=O)Cn2c3ccccc3c3cnn(C)c(=O)c32)CC1`: 580 s; for `CCn1ccc2c(cc(C(=O)Nc3ccc(Cl)cc3C)n2C)c1=O`: 1320 s; for `CCc1ccc(Oc2cc(N3CCC(C(=O)NCC(C)c4ccccc4)CC3)ncn2)cc1` (stereo not drawn): 1090 s. The same measure for `O=C(Nc1ccc(F)c(Cl)c1)c1sc2ncccc2c1-n1cccc1`: 1170 s. With `CCCN1CCN(C(=O)c2ccc(CN3CCN(Cc4ccccc4)C(=O)C3=O)cc2)CC1` the figure was 811 s; with `COc1ccc(CN(C(=O)COc2c(C)cccc2C)C2CCS(=O)(=O)C2)cc1OC` (stereo not drawn), 847 s. The compound `Cc1cc(C(=O)NCC(C)C)c2cc(Cl)ccc2n1` returned an RP-LC retention time of 784 s.

Source of the values: the METLIN SMRT retention time set (Domingo-Almenara et al. 2019).
